# Data published in article PMC6514771, “A Stapled Peptide Mimic of the Pseudosubstrate Inhibitor PKI Inhibits Protein Kinase A” (Molecules, 2019).
# Legend:
# [1] = molecular target: human PKA catalytic isoform Cα (PKA-Cα) (Homo sapiens, UniProt P17612); test: Fluorescence polarization (FP) direct binding; conditions: FAM-labeled negative control peptide; three independent measurements with three protein preparations
# [2] = molecular target: human PKA catalytic isoform Cβ1 (PKA-Cβ1) (Homo sapiens, UniProt P22694); test: Fluorescence polarization (FP) direct binding; conditions: FAM-labeled negative control peptide; three independent measurements with three protein preparations
substance,measurement,setting,value
βA-TTY*DFI*SGRTGFFNAIHD (sidechain bridge or staple) [negative control peptide],binding to PKA-Ca (FP),[1],No binding
same,binding to PKA-Cb (FP),[2],No binding
